Reference: patent US9976170B2, “Method for evaluating bacterial cell wall integrity” (UNIVERSIDAD AUTONOMA DE MADRID, priority 2011, dated 2018)
≈ marks a conversion by molar mass, not a printed value.

Experiments:
Assay type in all cases: cell-based
[1] = tested on: ampicillin-sensitive E. coli strain; experiment: incubation with increasing doses of antibiotic, lysed/non-lysed cells normalized by OD 600 (persisters); conditions: 60 minutes; for Lysed Cells Relative / Non-lysed Cells Relative: normalized by OD 600
[2] = tested on: ampicillin-sensitive E. coli strain; experiment: microgranular-fibrillar background in microgels stained with SYBR Gold (Example 8); conditions: 32 μg/mL, 60 minutes
Description: The experiment was conducted with a strain of ampicillin-sensitive E. coli and a strain of imipenem-sensitive A. baumanii. The first strain was incubated with 32 μg/mL ampicillin and the second strain with 0.76 μg/mL imipenem for 60 minutes in Mueller-Hinton liquid medium at 37° C. under stirring. After incubation, each culture with the cells was included in microgels on the slide. A microgel containing the antibiotic-free control culture, and 2 microgels containing the culture treated with antibiotic were placed on each slide. The size of each microgel corresponds to a 18×18 mm slide cover. The microgels on some slides were washed in a proteinase K buffer (1% SDS, 2 mM EDTA) and the microgels on other slides were washed in a DNAase I buffer (20 mM Tris-HCl, pH 8.3, 2 mM MgCl2). In the former, one of the microgels containing the culture treated with ampicillin was incubated only with a proteinase K buffer and the other microgel containing the culture treated with ampicillin was incubated with 5 μl of 2 mg/mL proteinase K, in the buffer thereof. In the slides washed with a DNAase I buffer, one of the microgels containing the culture treated with ampicillin was incubated only with a DNAase I buffer and the other microgel containing the culture treated with ampicillin was incubated with 5 μl of 2.5 U DNAase I, in the buffer thereof. […]

[3] = tested on: Enterococcus faecium, ampicillin- and benzylpenicillin-resistant strain; experiment: technique for evaluating cell wall integrity (lysis solution, nucleoid release, fluorescence microscopy); conditions: 320 μg/mL, 60 minutes
Description: (§1) Different bacterial strains grown on a dish with Mueller-Hinton medium for 24 hours were subsequently exposed to a β-lactam antibiotic for 60 minutes in Mueller-Hinton liquid medium at 37° C., under stirring, and were finally processed by means of the technique for evaluating cell wall integrity according to the present invention.
(§2) The doses of antibiotic applied were 0, the MIC determined in the Microbiology Laboratory by means of the microdilution and/or E-test technique, and those of the cutoff points of sensitivity and resistance indicated by the Clinical and Laboratory Standards Institute (CLSI) for each strain. A dose 10 times higher than the MIC was also used.

[4] = tested on: Escherichia coli, ceftazidime-sensitive strain with intermediate sensitivity to ampicillin; experiment: as above; conditions: 60 minutes
Description: as §1, §2

[5] = tested on: Escherichia coli, ampicillin- and ceftazidime-resistant strain; experiment: as above; conditions: 60 minutes
Description: as §1, §2

[6] = tested on: Enterococcus faecalis, ampicillin-sensitive and benzylpenicillin-resistant strain; experiment: as above; conditions: 60 minutes
Description: as §1, §2

[7] = tested on: Enterococcus faecium, ampicillin- and benzylpenicillin-resistant strain; experiment: MIC by microdilution and/or E-test
Description: (§3) The strains and the antibiotics used were: • Gram+ • Enterococcus faecalis.
as §2

[8] = tested on: Enterococcus faecalis, ampicillin-sensitive and benzylpenicillin-resistant strain; experiment: MIC by microdilution and/or E-test
Description: as §3, §2

## CC1(C)S[C@@H]2[C@H](NC(=O)[C@H](N)c3ccccc3)C(=O)N2[C@H]1C(=O)O [ampicillin]
[1]; dose 2 μg/mL
  Lysed Cells %: 90.3%
  Non-lysed Cells %: 9.7%
  OD600 (ODinitial = 0.1): 0.323
  RELATIVE OD600 %: 77.6%
  Lysed Cells Relative: 70.1
  Non-lysed Cells Relative: 7.5
[1]; dose 8 μg/mL
  Lysed Cells %: 70.6%
  Non-lysed Cells %: 29.3%
  OD600 (ODinitial = 0.1): 0.120
  RELATIVE OD600 %: 28.8%
  Lysed Cells Relative: 20.4
  Non-lysed Cells Relative: 8.5
[1]; dose 16 μg/mL
  Lysed Cells %: 37.5%
  Non-lysed Cells %: 62.5%
  OD600 (ODinitial = 0.1): 0.050
  RELATIVE OD600 %: 12.0%
  Lysed Cells Relative: 4.5
  Non-lysed Cells Relative: 7.5
[1]; dose 32 μg/mL
  Lysed Cells %: 22.5%
  Non-lysed Cells %: 77.5%
  OD600 (ODinitial = 0.1): 0.027
  RELATIVE OD600 %: 6.5%
  Lysed Cells Relative: 1.5
  Non-lysed Cells Relative: 5.0
[1]; dose 160 μg/mL
  Lysed Cells %: 15.0%
  Non-lysed Cells %: 85.0%
  OD600 (ODinitial = 0.1): 0.024
  RELATIVE OD600 %: 5.8%
  Lysed Cells Relative: 0.9
  Non-lysed Cells Relative: 4.9
[1]; over all increasing doses, according to relative OD 600
  relative proportion of non-lysed cells: 5-8.5
[2]
  microgranular-fibrillar background in the preparation: showed the background
[3]
  background of extracellular DNA fragments: subtle background
  cells with a small halo: 2%
  heavily lysed cells: 7.5%
  lysed cells with nucleoid with fragmented DNA: 1%
  non-lysed cells: 89%
[4]; 8 μg/mL
  background of extracellular DNA fragments: extensive background
  cells lysed with nucleoid with fragmented DNA: 9%
  heavily lysed cells: 55%
[4]; 16 μg/mL (MIC)
  empty capsules: 22.6
  lysed cells with a large halo: 60.4%
  lysed cells with nucleoid with fragmented DNA: 5.7%
  non-lysed cells: 11.3%
[4]; 20 μg/mL
  cells with a large halo: 47.3%
  empty capsules: 31.2%
  lysed cells with nucleoid with fragmented DNA: 8.6%
  non-lysed cells: 12.9%
[4]; 32 and 160 μg/mL
  empty capsules: 54%
[5]; 256 μg/mL
  background of extracellular DNA fragments: without background
  cells lysed with nucleoid with fragmented DNA: 1%
  lysed cells: 0.5%
[5]; 2,560 μg/mL
  background of extracellular DNA fragments: subtle background
  cells lysed with nucleoid with fragmented DNA: 1.5%
  empty capsules: 4%
  heavily lysed cells: 13%
  moderately lysed cells: 5%
[6]; 4 μg/mL (MIC)
  background of extracellular DNA fragments: subtle background
  cells lysed with fragmented DNA: 12%
  heavily lysed cells: 35%
  moderately lysed cells: 25%
  non-lysed cells: 28%
[6]; 40 μg/mL
  background of extracellular DNA fragments: very faint
  cells lysed with fragmented DNA nucleoid: 2%
  cells with a large lysis halo: 20%
  cells with a small halo: 15%
  non-lysed cells: 63%
[7]
  MIC: > 32 µg/mL
[8]
  MIC: 4 µg/mL (≈ 11.4 µM)
